# Test results as given in paper PMC11040352, “CD38‐Specific Gallium‐68 Labeled Peptide Radiotracer Enables Pharmacodynamic Monitoring in Multiple Myeloma with PET” (Advanced Science, 2024).
# “And” between values parts separate entries of the source, which are not always exact repeats. Identical values can stand only once. Like-named read-outs stand apart in the source and are kept apart here.
# Columns and labels:
# [1] = Ex vivo biodistribution in mice with RPMI tumor xenografts; details: both sexes, NSG, mouse, 60 min p.i., RPMI xenograft mice; for tissue uptake at 1 h: 50 µCi; for tissue to tissue ratio at 1 h: 50 uCi, total radioactivity
# Protocol: (§1) Animal studies were performed under Johns Hopkins University Animal Care and Use Committee (ACUC‐approved protocol (Principal investigator: Sridhar Nimmagadda, Ph.D. and Protocol number M021M175). Male and female NSG mice (5‐6 weeks old) were used to establish xenografts by administering 3 million cells (50% Corning Matrigel) subcutaneously to form various tumor models within 3–4 weeks. Imaging or biodistribution studies (n = 3–5) were conducted on mice with tumor volumes of 100–200 mm^3. Disseminated tumor models were developed by injecting 4–5 million cells in saline intravenously for MOLP8 and MM1S‐Luc models (n = 4–5). Luciferase expressing MM1S cell line (MM1S‐Luc) was used to monitor cancer cell dissemination in the body. Tumor establishment was confirmed by injecting D‐Luciferin intraperitoneally (150 mg kg^−1) and imaged mice after 10 min in IVIS bioluminescence imaging system. Bone marrow tumors were ready for imaging after 25–30 d of implantation.
# (§2) Mice with 100–200 mm^3 tumor volume were used for ex vivo biodistribution studies. For radiotracer pharmacokinetics studies, mice with MOLP8 tumor xenografts received ≈80 µCi (2.96 MBq) [^68Ga]Ga‐AJ206 and were sacrificed at pre‐determined time points (5, 30, 60 and 120 min). Similarly, for dosimetry study, mice with MM1S tumor xenografts received ≈80 µCi (2.96 MBq) of [^68Ga]Ga‐AJ206 and were sacrificed at pre‐determined time points (5, 30, 60, 90 and 120 min). All other mice were injected with ≈50µCi (1.85 MBq) [^68Ga]Ga‐AJ206 and were sacrificed at 60 min. The selected tissues were collected, weighed, counted, and their %ID g^−1 values calculated for biodistribution analysis. The tissues included blood, muscle, tumor, thymus, heart, lung, liver, pancreas, stomach, small intestine, large intestine, spleen, adrenals, kidney, bladder, femur, and brain.
# MOLP8 tumor xenografts = experiment: Ex vivo biodistribution in mice with MOLP8 tumor xenografts; design: species or system NSG mice; details: MOLP8 xenograft mice
# Protocol: as §1, §2
# [2] = as above; design: species or system NSG mice; details: both sexes, NSG, mouse, 80 uCi, total radioactivity, MOLP8 xenograft mice; for tissue to tissue ratio at 5 min: 5 min p.i.; for tissue to tissue ratio at 0.5 h: 30 min p.i.; for tissue to tissue ratio at 1 h: 60 min p.i.; for tissue to tissue ratio at 2 h: 120 min p.i.
# Protocol: as §1, §2
# [3] = Ex vivo biodistribution in mice with U266 tumor xenografts; details: both sexes, NSG, mouse, 60 min p.i., U266 xenograft mice; for tissue uptake at 1 h: 50 µCi; for tissue to tissue ratio at 1 h: 50 uCi, total radioactivity
# Protocol: as §1, §2
# [4] = blood, read-out: uptake in blood
# [5] = heart, read-out: uptake in heart
# [6] = kidney, read-out: uptake in kidney
# [7] = liver, read-out: uptake in liver
# [8] = muscle, read-out: uptake in muscle
# [9] = small intestine, read-out: uptake in small intestine
# [10] = spleen, read-out: uptake in spleen
# [11] = stomach, read-out: uptake in stomach
# [12] = tumor, read-out: uptake in tumor
# [13] = tumor/blood, read-out: Tumor/Blood ratio
# [14] = tumor/muscle, read-out: Tumor/Muscle ratio
# [15] = 60 min p.i., listed as [68Ga]Ga-AJ206
# [16] = tumor/blood, read-out: Tumor/blood ratio
# [17] = tumor/muscle, read-out: Tumor/muscle ratio
smiles,measurement,setting,value
"CC[C@H](C)[C@@H]1NC(=O)[C@@H]2CCCN2C(=O)[C@H](Cc2ccccc2)NC(=O)[C@H](CC(=O)O)NC(=O)[C@H](C)NC(=O)[C@@H]2CSCc3cc(cc(c3)CSC[C@H](NC(=O)[C@H](C)NC(=O)CCOCCOCCOCCNC(=O)CN3CCN(CC(=O)O)CCN(CC(=O)O)CC3)C(=O)N[C@@H](C(C)C)C(=O)N3CCC[C@H]3C(=O)N2)CSC[C@@H](C(N)=O)NC(=O)[C@H](Cc2ccc(O)cc2)NC(=O)[C@H](Cc2c[nH]c3ccccc23)NC1=O [[^68Ga]Ga‐AJ206, metal not drawn]",tissue uptake at 1 h,[1]; [4],0.98 ± 0.48 %ID/g
same,tissue uptake at 1 h,[1]; [5],0.63 ± 0.21 %ID/g
same,tissue uptake at 1 h,[1]; [6],17.8 ± 3.48 %ID/g
same,tissue uptake at 1 h,[1]; [7],1.27 ± 0.3 %ID/g
same,tissue uptake at 1 h,"[1]; lung, read-out: uptake in lung",1 ± 0.26 %ID/g
same,tissue uptake at 1 h,[1]; [8],0.49 ± 0.07 %ID/g
same,tissue uptake at 1 h,"[1]; pancreas, read-out: uptake in pancreas",0.48 ± 0.15 %ID/g
same,tissue uptake at 1 h,[1]; [9],0.59 ± 0.25 %ID/g
same,tissue uptake at 1 h,[1]; [10],1.09 ± 0.15 %ID/g
same,tissue uptake at 1 h,[1]; [11],0.45 ± 0.07 %ID/g
same,tissue uptake at 1 h,[1]; [12],1.78 ± 0.36 %ID/g
same,tissue to tissue ratio at 1 h,[1]; [13],2.69 ± 0.65
same,tissue to tissue ratio at 1 h,[1]; [14],3.72 ± 0.73
same,uptake in blood,MOLP8 tumor xenografts; 5 min p.i.,8.25 ± 0.50 %ID g^−1
same,uptake in femur,MOLP8 tumor xenografts; 5 min p.i.,1.42 ± 0.09 %ID g^−1
same,uptake in heart,MOLP8 tumor xenografts; 5 min p.i.,3.13 ± 0.27 %ID g^−1
same,uptake in kidney,MOLP8 tumor xenografts; 5 min p.i.,11.17 ± 0.65 %ID g^−1
same,uptake in liver,MOLP8 tumor xenografts; 5 min p.i.,21.24 ± 1.31 %ID g^−1
same,uptake in lungs,MOLP8 tumor xenografts; 5 min p.i.,6.16 ± 0.16 %ID g^−1
same,uptake in muscle,MOLP8 tumor xenografts; 5 min p.i.,0.92 ± 0.11 %ID g^−1
same,uptake in small intestine,MOLP8 tumor xenografts; 5 min p.i.,1.95 ± 0.08 %ID g^−1
same,uptake in spleen,MOLP8 tumor xenografts; 5 min p.i.,2.28 ± 0.50 %ID g^−1
same,uptake in stomach,MOLP8 tumor xenografts; 5 min p.i.,1.08 ± 0.07 %ID g^−1
same,uptake in tumor,MOLP8 tumor xenografts; 5 min p.i.,2.58 ± 0.18 %ID g^−1
same,uptake in blood,MOLP8 tumor xenografts; 30 min p.i.,2.07 ± 0.30 %ID g^−1
same,uptake in femur,MOLP8 tumor xenografts; 30 min p.i.,0.65 ± 0.08 %ID g^−1
same,uptake in heart,MOLP8 tumor xenografts; 30 min p.i.,0.83 ± 0.18 %ID g^−1
same,uptake in kidney,MOLP8 tumor xenografts; 30 min p.i.,17.09 ± 1.77 %ID g^−1
same,uptake in liver,MOLP8 tumor xenografts; 30 min p.i.,6.39 ± 3.71 %ID g^−1
same,uptake in lungs,MOLP8 tumor xenografts; 30 min p.i.,1.86 ± 0.29 %ID g^−1
same,uptake in muscle,MOLP8 tumor xenografts; 30 min p.i.,0.37 ± 0.05 %ID g^−1
same,uptake in small intestine,MOLP8 tumor xenografts; 30 min p.i.,0.59 ± 0.14 %ID g^−1
same,uptake in spleen,MOLP8 tumor xenografts; 30 min p.i.,0.75 ± 0.14 %ID g^−1
same,uptake in stomach,MOLP8 tumor xenografts; 30 min p.i.,0.51 ± 0.06 %ID g^−1
same,uptake in tumor,MOLP8 tumor xenografts; 30 min p.i.,2.91 ± 0.84 %ID g^−1
same,Tumor/blood ratio,MOLP8 tumor xenografts; 60 min p.i.,7.20 ± 0.89
same,Tumor/muscle ratio,MOLP8 tumor xenografts; 60 min p.i.,27.12 ± 2.73
same,uptake in blood,MOLP8 tumor xenografts; 60 min p.i.,0.56 ± 0.09 %ID g^−1
same,uptake in femur,MOLP8 tumor xenografts; 60 min p.i.,0.28 ± 0.07 %ID g^−1
same,uptake in heart,MOLP8 tumor xenografts; 60 min p.i.,0.29 ± 0.03 %ID g^−1
same,uptake in kidney,MOLP8 tumor xenografts; 60 min p.i.,16 %ID g^−1 and 16.65 ± 2.52 %ID g^−1
same,uptake in liver,MOLP8 tumor xenografts; 60 min p.i.,1.22 ± 0.09 %ID g^−1
same,uptake in lungs,MOLP8 tumor xenografts; 60 min p.i.,0.71 ± 0.10 %ID g^−1
same,uptake in muscle,MOLP8 tumor xenografts; 60 min p.i.,0.14 ± 0.02 %ID g^−1
same,uptake in small intestine,MOLP8 tumor xenografts; 60 min p.i.,0.65 ± 0.09 %ID g^−1
same,uptake in spleen,MOLP8 tumor xenografts; 60 min p.i.,0.39 ± 0.03 %ID g^−1
same,uptake in stomach,MOLP8 tumor xenografts; 60 min p.i.,0.25 ± 0.06 %ID g^−1
same,uptake in tumor,MOLP8 tumor xenografts; 60 min p.i.,3.76 ± 0.25 %ID g^−1
same,uptake in blood,MOLP8 tumor xenografts; [15],0.56±0.09 %ID g^−1
same,uptake in femur,MOLP8 tumor xenografts; [15],0.28±0.07 %ID g^−1
same,uptake in heart,MOLP8 tumor xenografts; [15],0.29±0.03 %ID g^−1
same,uptake in kidney,MOLP8 tumor xenografts; [15],16.65±2.52 %ID g^−1
same,uptake in liver,MOLP8 tumor xenografts; [15],1.22±0.09 %ID g^−1
same,uptake in lungs,MOLP8 tumor xenografts; [15],0.71±0.10 %ID g^−1
same,uptake in muscle,MOLP8 tumor xenografts; [15],0.14±0.02 %ID g^−1
same,uptake in small intestine,MOLP8 tumor xenografts; [15],0.65±0.09 %ID g^−1
same,uptake in spleen,MOLP8 tumor xenografts; [15],0.39±0.03 %ID g^−1
same,uptake in stomach,MOLP8 tumor xenografts; [15],0.25±0.06 %ID g^−1
same,uptake in tumor,MOLP8 tumor xenografts; [15],3.76±0.25 %ID g^−1
same,uptake in blood,MOLP8 tumor xenografts; 120 min p.i.,0.05 ± 0.01 %ID g^−1
same,uptake in femur,MOLP8 tumor xenografts; 120 min p.i.,0.07 ± 0.01 %ID g^−1
same,uptake in heart,MOLP8 tumor xenografts; 120 min p.i.,0.05 ± 0.01 %ID g^−1
same,uptake in kidney,MOLP8 tumor xenografts; 120 min p.i.,13.75 ± 0.23 %ID g^−1
same,uptake in liver,MOLP8 tumor xenografts; 120 min p.i.,0.42 ± 0.01 %ID g^−1
same,uptake in lungs,MOLP8 tumor xenografts; 120 min p.i.,0.16 ± 0.03 %ID g^−1
same,uptake in muscle,MOLP8 tumor xenografts; 120 min p.i.,0.07 ± 0.04 %ID g^−1
same,uptake in small intestine,MOLP8 tumor xenografts; 120 min p.i.,0.18 ± 0.04 %ID g^−1
same,uptake in spleen,MOLP8 tumor xenografts; 120 min p.i.,0.17 ± 0.02 %ID g^−1
same,uptake in stomach,MOLP8 tumor xenografts; 120 min p.i.,0.03 ± 0.01 %ID g^−1
same,uptake in tumor,MOLP8 tumor xenografts; 120 min p.i.,1.46 ± 0.02 %ID g^−1
same,blood pool activity cleared,MOLP8 tumor xenografts; by 60 min,~95%
same,tissue to tissue ratio at 5 min,[2]; [16],0.32 ± 0.04
same,tissue to tissue ratio at 0.5 h,[2]; [16],1.43 ± 0.46
same,tissue to tissue ratio at 1 h,[2]; [16],> 7
same,tissue to tissue ratio at 2 h,[2]; [16],19.7 ± 6.57
same,tissue to tissue ratio at 5 min,[2]; [17],2.94 ± 0.47
same,tissue to tissue ratio at 0.5 h,[2]; [17],7.28 ± 1.89
same,tissue to tissue ratio at 1 h,[2]; [17],> 25
same,tissue to tissue ratio at 2 h,[2]; [17],27.4 ± 18.6
same,tissue uptake at 1 h,[3]; [4],0.32 ± 0.06 %ID/g
same,tissue uptake at 1 h,"[3]; femur, read-out: uptake in femur",0.13 ± 0.02 %ID/g
same,tissue uptake at 1 h,[3]; [5],0.15 ± 0.02 %ID/g
same,tissue uptake at 1 h,[3]; [6],21.5 ± 2.68 %ID/g
same,tissue uptake at 1 h,[3]; [7],0.78 ± 0.06 %ID/g
same,tissue uptake at 1 h,"[3]; lung, read-out: uptake in lung",0.42 ± 0.04 %ID/g
same,tissue uptake at 1 h,[3]; [8],0.08 ± 0.01 %ID/g
same,tissue uptake at 1 h,[3]; [9],0.16 ± 0.01 %ID/g
same,tissue uptake at 1 h,[3]; [10],0.24 ± 0.01 %ID/g
same,tissue uptake at 1 h,[3]; [11],0.39 ± 0.3 %ID/g
same,tissue uptake at 1 h,[3]; [12],0.25 ± 0.03 %ID/g
same,tissue to tissue ratio at 1 h,[3]; [13],0.83 ± 0.09
same,tissue to tissue ratio at 1 h,[3]; [14],3.43 ± 0.28
